Values of other authors as cited in PubChem BioAssay AID1259409 (Chemical Carcinogenesis Research Information System (CCRIS), 2018).

Test system: rodent chemically induced tumor inhibition, incidence and multiplicity
Assay: CCRIS tumor inhibitor studies

C=C1CC[C@H]2C(C)(C)CCC[C@]2(C)[C@H]1CO
tumour outcome (control, treated, inhibition, significance) (Carcinogen: 7,12-DIMETHYLBENZ[A]ANTHRACENE [57-97-6], Dose [Inhibitor]: 85 NMOL/G IN 0.1 ML ACETONE 2X/WK FOR 20 WK 1 HR PRIOR TO EACH PROMOTER DOSE BEGINNING 1 WK POST LAST CARCINOGEN DOSE (S, Route [Inhibitor]: DERMAL, Species: MOUSE, Strain/Sex: ICR/FEMALE, Target Tissue: Type of Lesion: SKIN: PAPILLOMA, Dose [Carcinogen]: 390 NMOL IN 0.1 ML ACETONE ONCE (STUDY DURATION: 21 WK), Promoter: 12-O-TETRADECANOYL-13-ACETATE [16561-29-8]): 100%, 65%, 35%, not calculated

CC1=CCC(C(C)(O)CO)CC1 (stereo unspecified)
tumour outcome (control, treated, inhibition, significance) (Carcinogen: 7,12-DIMETHYLBENZ[A]ANTHRACENE, 57-97-6, Dose [Inhibitor]: 0, 1% IN DIET FOR 3 WK BEGINNING 2 WK PRIOR TO CARCINOGEN DOSE (STUDY DURATION: 20 WK), Route [Inhibitor]: ORAL, Species: RAT, Strain/Sex: WISTAR/FEMALE, Target Tissue: Type of Lesion: MAMMARY GLAND: CARCINOMA, Dose [Carcinogen]: 50 MG/KG IN SESAME OIL ONCE, Promoter: NONE USED): 98%, 84%, 14%, not significant

C[C@H]1O[C@@H](O[C@H]2[C@@H](O)C[C@H](O[C@H]3[C@@H](O)C[C@H](O[C@H]4CC[C@@]5(C)[C@H](CC[C@@H]6[C@@H]5CC[C@]5(C)[C@@H](C7=CC(=O)OC7)CC[C@]65O)C4)O[C@@H]3C)O[C@@H]2C)C[C@H](O)[C@@H]1O
tumour outcome (control, treated, inhibition, significance) (Carcinogen: 4-NITROQUINOLINE-N-OXIDE, 56-57-5, Dose [Inhibitor]: 0, 0.25 MG/100 ML IN DRINKING WATER FOR 20 WK BEGINNING 5 WK POST CARCINOGEN DOSE (STUDY DURATION: 25 WK), Route [Inhibitor]: ORAL, Species: MOUSE, Strain/Sex: ICR/FEMALE, Target Tissue: Type of Lesion: LUNG: TUMOR, Dose [Carcinogen]: 0.3 MG ONCE, Promoter: GLYCEROL, 56-81-5): 100%, 53%, 47%, not calculated | tumour outcome (control, treated, inhibition, significance) (Carcinogen: 7,12-DIMETHYLBENZ[A]ANTHRACENE, 57-97-6, Dose [Inhibitor]: 0, 85 NMOL IN ACETONE 2/WK 1 HR PRIOR TO EACH PROMOTER DOSE FOR 20 WK (STUDY DURATION: 21 WK), Route [Inhibitor]: DERMAL, Species: MOUSE, Strain/Sex: ICR/FEMALE, Target Tissue: Type of Lesion: SKIN: PAPILLOMA, Dose [Carcinogen]: 100 UG IN ACETONE ONCE, Promoter: 12-O-TETRADECANOYLPHORBOL-13-ACETATE, 16561-29-8): 100%, 80%, 20%, not calculated

CC(C)C1CCC(O)CC1 (stereo unspecified)
tumour outcome (control, treated, inhibition, significance) (Carcinogen: 7,12-DIMETHYLBENZ[A]ANTHRACENE, 57-97-6, Dose [Inhibitor]: 0, 12 NMOL PER REPEATED APPLICATION FOR 20 WK (STUDY DURATION: 20 WK), Route [Inhibitor]: DERMAL, Species: MOUSE, Strain/Sex: CD-1/FEMALE, Target Tissue: Type of Lesion: SKIN: TUMOR, Dose [Carcinogen]: 100 UG ONCE, Promoter: OKADAIC ACID, 78111-17-8): 87%, 50%, 43%, not calculated

N[C@@H](CCC(=O)N[C@@H](CS)C(=O)NCC(=O)O)C(=O)O
tumour outcome (control, treated, inhibition, significance) (Carcinogen: TRANS-5-AMINO-3-[2-(5-NITRO-2-FURYL)VINYL]-1,2,4-OXADIAZOLE;SQL8506, 28754-68-9, Carcinogen: TRANS-5-AMINO-3-[2-(5-NITRO-2-FURYL)VINYL]-1,2,4-OXADIAZOLE;SQL8506, 28754-68-9, Dose [Inhibitor]: 400 MG/KG 16 HR BEFORE THE 1ST CARCINOGEN DOSE FOLLOWED BY ADDITIONAL INJECTIONS IMMEDIATELY BEFORE EACH DOSE OF CARCINO, Route [Inhibitor]: INTRAPERITONEAL, Species: MOUSE, Strain/Sex: CD-1/FEMALE, Target Tissue: Type of Lesion: HEMATOPOIETIC SYSTEM: MYELOID LEUKEMIA, Dose [Carcinogen]: 1 G/KG 2/D FOR 5 D EVERY 4 WK FOR 3 COURSES OF TREATMENT, Promoter: NONE USED): 7/137 (5%), 2/35 (6%), -20%, not calculated | tumour outcome (control, treated, inhibition, significance) (Carcinogen: TRANS-5-AMINO-3-[2-(5-NITRO-2-FURYL)VINYL]-1,2,4-OXADIAZOLE;SQL8506, 28754-68-9, Carcinogen: TRANS-5-AMINO-3-[2-(5-NITRO-2-FURYL)VINYL]-1,2,4-OXADIAZOLE;SQL8506, 28754-68-9, Dose [Inhibitor]: 400 MG/KG 16 HR BEFORE THE 1ST CARCINOGEN DOSE FOLLOWED BY ADDITIONAL INJECTIONS IMMEDIATELY BEFORE EACH DOSE OF CARCINO, Route [Inhibitor]: INTRAPERITONEAL, Species: MOUSE, Strain/Sex: CD-1/FEMALE, Target Tissue: Type of Lesion: LYMPHOID TISSUE: NONTHYMIC LYMPHOMA, Dose [Carcinogen]: 1 G/KG 2/D FOR 5 D EVERY 4 WK FOR 3 COURSES OF TREATMENT, Promoter: NONE USED): 8/137 (6%), 3/35 (8%), -33%, not calculated | tumour outcome (control, treated, inhibition, significance) (Carcinogen: TRANS-5-AMINO-3-[2-(5-NITRO-2-FURYL)VINYL]-1,2,4-OXADIAZOLE;SQL8506, 28754-68-9, Carcinogen: TRANS-5-AMINO-3-[2-(5-NITRO-2-FURYL)VINYL]-1,2,4-OXADIAZOLE;SQL8506, 28754-68-9, Dose [Inhibitor]: 400 MG/KG 16 HR BEFORE THE 1ST CARCINOGEN DOSE FOLLOWED BY ADDITIONAL INJECTIONS IMMEDIATELY BEFORE EACH DOSE OF CARCINO, Route [Inhibitor]: INTRAPERITONEAL, Species: MOUSE, Strain/Sex: CD-1/FEMALE, Target Tissue: Type of Lesion: LYMPHOID TISSUE: THYMIC LYMPHOMA, Dose [Carcinogen]: 1 G/KG 2/D FOR 5 D EVERY 4 WK FOR 3 COURSES OF TREATMENT, Promoter: NONE USED): 22/137 (16%), 2/35 (6%), 62%, not calculated | tumour outcome (control, treated, inhibition, significance) (Carcinogen: TRANS-5-AMINO-3-[2-(5-NITRO-2-FURYL)VINYL]-1,2,4-OXADIAZOLE;SQL8506, 28754-68-9, Carcinogen: TRANS-5-AMINO-3-[2-(5-NITRO-2-FURYL)VINYL]-1,2,4-OXADIAZOLE;SQL8506, 28754-68-9, Dose [Inhibitor]: 400 MG/KG 16 HR BEFORE THE 1ST CARCINOGEN DOSE FOLLOWED BY ADDITIONAL INJECTIONS IMMEDIATELY BEFORE EACH DOSE OF CARCINO, Route [Inhibitor]: INTRAPERITONEAL, Species: MOUSE, Strain/Sex: CD-1/FEMALE, Target Tissue: Type of Lesion: STOMACH: SQUAMOUS CARCINOMA, Dose [Carcinogen]: 1 G/KG 2/D FOR 5 D EVERY 4 WK FOR 3 COURSES OF TREATMENT, Promoter: NONE USED): 60/137 (44%), 12/35 (34%), 23%, not calculated

O=C1OC(c2ccc(O)cc2)Cc2cccc(O)c21 (stereo unspecified)
tumour outcome (control, treated, inhibition, significance) (Carcinogen: AZOXYMETHANE [25843-45-2], Dose [Inhibitor]: 200 PPM IN DIET FOR 4 WK BEGINNING 1 WK PRIOR TO FIRST CARCINOGEN DOSE (STUDY DURATION: 35 WK), Route [Inhibitor]: ORAL, Species: RAT, Strain/Sex: F344/MALE, Target Tissue: Type of Lesion: COLON: ADENOMA, Dose [Carcinogen]: 15 MG/KG BW 1X/WK FOR 3 WK (STUDY DURATION: 35 WK), Promoter: NONE): 6/28 (21%), 2/29 (7%), 67%, not significant | tumour outcome (control, treated, inhibition, significance) (Carcinogen: AZOXYMETHANE [25843-45-2], Dose [Inhibitor]: 200 PPM IN DIET FOR 4 WK BEGINNING 1 WK PRIOR TO FIRST CARCINOGEN DOSE (STUDY DURATION: 35 WK), Route [Inhibitor]: ORAL, Species: RAT, Strain/Sex: F344/MALE, Target Tissue: Type of Lesion: COLON: CARCINOMA, Dose [Carcinogen]: 15 MG/KG BW 1X/WK FOR 3 WK (STUDY DURATION: 35 WK), Promoter: NONE): 8/28 (29%), 10/29 (34%), -17%, not significant | tumour outcome (control, treated, inhibition, significance) (Carcinogen: AZOXYMETHANE [25843-45-2], Dose [Inhibitor]: 200 PPM IN DIET FOR 4 WK BEGINNING 1 WK PRIOR TO FIRST CARCINOGEN DOSE (STUDY DURATION: 35 WK), Route [Inhibitor]: ORAL, Species: RAT, Strain/Sex: F344/MALE, Target Tissue: Type of Lesion: SMALL INTESTINE: CARCINOMA, Dose [Carcinogen]: 15 MG/KG BW 1X/WK FOR 3 WK (STUDY DURATION: 35 WK), Promoter: NONE): 7/28 (25%), 4/29 (14%), 44%, not significant

CC1=C(/C=C/C(C)=C/C=C/C(C)=C/C(=O)Nc2nn[nH]n2)C(C)(C)CCC1
tumour outcome (control, treated, inhibition, significance) (Carcinogen: N-BUTYL-N-(4-HYDROXYBUTYL)NITROSAMINE, 3817-11-6, Dose [Inhibitor]: 1.5 MMOL/KG DIET DAILY FOR 159 D STARTING 1 WK AFTER THE FINAL CARCINOGEN DOSE (STUDY DURATION: 216 D), Route [Inhibitor]: ORAL, Species: MOUSE, Strain/Sex: BDF/MALE, Target Tissue: Type of Lesion: URINARY BLADDER: TRANSITIONAL CELL CARCINOMA, Dose [Carcinogen]: 7.5 MG 1/WK FOR 8 WK, Promoter: NONE USED): 29/98 (30%), 15/97 (16%), 47%, p<0.05 | tumour outcome (control, treated, inhibition, significance) (Carcinogen: N-BUTYL-N-(4-HYDROXYBUTYL)NITROSAMINE, 3817-11-6, Dose [Inhibitor]: 1.5 MMOL/KG/D IN DIET FOR 159 D STARTING 1 WK POST CARCINOGEN TREATMENT (STUDY DURATION: 216 D), Route [Inhibitor]: ORAL, Species: MOUSE, Strain/Sex: BDF/MALE, Target Tissue: Type of Lesion: URINARY BLADDER: TRANSITIONAL CELL CARCINOMA, Dose [Carcinogen]: 7.5 MG 1/WK FOR 8 WK, Promoter: NONE USED): 29/98 (30%), 15/97 (16%), 47%, p<0.05

CC(=O)/C=C/C1=C(C)CCCC1(C)C
tumour outcome (control, treated, inhibition, significance) (Carcinogen: 7,12-DIMETHYLBENZ[A]ANTHRACENE, 57-97-6, Dose [Inhibitor]: 0, 36 MMOL/KG IN DIET FOR 24 WK BEGINNING 2 WK PRIOR TO CARCINOGEN DOSE (STUDY DURATION: 24 WK), Route [Inhibitor]: ORAL, Species: RAT, Strain/Sex: SPRAGUE-DAWLEY/FEMALE, Target Tissue: Type of Lesion: MAMMARY GLAND: TUMOR, Dose [Carcinogen]: 65 MG/KG BW ONCE, Promoter: NONE USED): 91%, 41%, 55%, not calculated | tumour outcome (control, treated, inhibition, significance) (Dose [Inhibitor]: 0, 1000 PPM IN DIET BEGINNING 8 WK PRIOR TO CARCINOGEN AND CONTINUING FOR 6 WK POST CARCINOGEN (STUDY DURATION: 68 WK), Route [Inhibitor]: ORAL, Species: FISH, Strain/Sex: RAINBOW TROUT, Target Tissue: Type of Lesion: LIVER: HEPATOCELLULAR CARCINOMA, Dose [Carcinogen]: 20 PPB IN DIET FOR 2 WK, Promoter: NONE USED): 43/118 (36%), 38/118 (32%), 11%, not significant
